From patent US9695118B2, “Benzamide derivative” (Chugai Seiyaku Kabushiki Kaisha, priority 2012, dated 2017)
pIC50: −log10 of the molar value.

Experiments:
[1] = target: DDR1 (Homo sapiens (Human), UniProt Q08345); assay: biochemical
Method: Measurement of DDR1 Binding Activity
DDR1 binding activity was measured by the LanthaScreen (Registered trademark) Eu Kinase Binding Assay (manufactured by Life Technologies Corporation). […] After reacting at room temperature for one hour, the fluorescence resonance energy transfer was measured.

[2] = system: human endometrial cancer cell line MFE-280; assay: Antitumor effect in cancer-bearing mice with subcutaneously transplanted MFE-280; assay type: in vivo; details: Dose 200 mg/kg, orally once daily; MFE-280 in BALB/c nude mice; 11th day after start of administration
Method: 3. Measurement of Antitumor Effect
The antitumor effect was measured for representative examples of the compounds of the present invention.
The antitumor effect was measured using cancer-bearing mice in which the human endometrial cancer cell line MFE-280 (manufactured by DSMZ) was subcutaneously transplanted to the flank of BALB/c nude mice (manufactured by Charles River Laboratories Japan, Inc.).
About 1×10^7 MFE-280 cells were subcutaneously transplanted to the flank of the purchased nude mice after a one-week quarantine period. The tumor size was measured with calipers, and the tumor volume was calculated (tumor volume=length×breadth^2/2 (mm^3)). The mice were subjected to the experiment when the tumor volume was about 200 mm^3.
The test compound was suspended in the administration solution, and 0.4 mL of the suspension was orally administered once daily. The antitumor effect was calculated as inhibition of tumor growth by comparing the tumor growth between the drug-treated group and the administration solution-administered control group on the 11th day after the start of administration.
Tumor volume growth inhibition (TGI)=(1−tumor volume growth in drug-treated group/tumor volume growth in control group)×100(%)

DDR1, sequence (Q08345 19-913): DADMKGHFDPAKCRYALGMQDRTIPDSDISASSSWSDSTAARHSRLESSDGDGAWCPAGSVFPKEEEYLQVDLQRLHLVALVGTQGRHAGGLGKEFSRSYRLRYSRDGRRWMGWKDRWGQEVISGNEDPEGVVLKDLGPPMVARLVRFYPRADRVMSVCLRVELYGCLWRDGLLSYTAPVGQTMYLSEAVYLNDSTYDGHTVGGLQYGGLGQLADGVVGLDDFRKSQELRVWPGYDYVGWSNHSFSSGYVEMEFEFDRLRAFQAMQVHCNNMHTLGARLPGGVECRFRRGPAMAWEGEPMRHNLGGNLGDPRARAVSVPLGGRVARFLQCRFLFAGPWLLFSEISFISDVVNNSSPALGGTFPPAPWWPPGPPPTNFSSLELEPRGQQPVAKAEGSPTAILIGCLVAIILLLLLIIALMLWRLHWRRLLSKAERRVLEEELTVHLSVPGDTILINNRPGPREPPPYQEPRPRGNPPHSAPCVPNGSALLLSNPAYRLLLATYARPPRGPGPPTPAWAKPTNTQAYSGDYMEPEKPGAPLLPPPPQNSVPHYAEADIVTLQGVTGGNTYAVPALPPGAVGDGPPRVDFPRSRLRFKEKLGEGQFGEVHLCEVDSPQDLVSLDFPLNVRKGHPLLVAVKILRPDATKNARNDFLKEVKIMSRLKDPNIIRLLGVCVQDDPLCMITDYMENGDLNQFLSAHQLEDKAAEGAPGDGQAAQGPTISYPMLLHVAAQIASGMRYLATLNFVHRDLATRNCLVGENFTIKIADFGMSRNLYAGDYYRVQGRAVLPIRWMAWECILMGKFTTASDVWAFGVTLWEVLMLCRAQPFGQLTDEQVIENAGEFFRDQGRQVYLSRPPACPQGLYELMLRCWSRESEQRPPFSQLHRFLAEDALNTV

pIC50 [1] | Compound | Antitumor effect TGI after 11 days passed (%) [2] [%]
7.30 | CCS(=O)(=O)c1ccc(Cl)cc1CNC(=O)c1cc(Br)cc(OC(F)(F)F)c1 [Compound A-10, 3-bromo-N-(5-chloro-2-ethanesulfonyl-benzyl)-5-trifluoromethoxy-benzamide] | –
– | CCS(=O)(=O)c1ccc(Cl)cc1CNC(=O)c1ccc(CN2CCN(C)CC2)c(C(F)(F)F)c1 [Compound B-2, N-(5-Chloro-2-ethanesulfonyl-benzyl)-4-(4-methyl-piperazin-1-ylmethyl)-3-trifluoromethyl-benzamide] | 61
7.12 | CCS(=O)(=O)c1ccc(Cl)cc1CNC(=O)c1cc(Cl)c(CN2CCC([N+](C)(C)[O-])CC2)c(C(F)(F)F)c1 [Compound N-24] | –
6.10 | C#CCN(CC#C)[C@H]1CCCN(Cc2c(Cl)cc(C(=O)NCc3cc(Cl)ccc3S(=O)(=O)CC)cc2C(F)(F)F)C1 [DD-23, 4-[[(3S)-3-[Bis(prop-2-ynyl)amino]piperidin-1-yl]methyl]-3-chloro-N-[(5-chloro-2-ethylsulfonylphenyl)methyl]-5-(trifluoromethyl)benzamide] | –
